Where a SMILES comes first, the peptide text is derived from it. Bridges are numbered along the chain shown (N, C = ends). [ ]: non-standard residue; d: D form. Nle = CCCC[C@H](N)C(=O)O

The target of test [1] is T1, human opioid receptor MOR (Homo sapiens, UniProt P35372).
T1 construct: purchased PerkinElmer (Krakow, Poland); host or cells: CHO cell membranes
Description: Radioligand binding assay, displacement of [3H]DAMGO. Conditions: displacement of [3H]DAMGO from membranes of CHO cells transfected with human MOR, 50 mM Tris/HCl pH 7.4, 0.5% BSA, peptidase inhibitors, 2 h at 25 °C, mean ± SEM, n ≥ 3. The protocol:
(§1) A radioligand binding assay was performed to determine the opioid receptor (OR) binding affinities of the novel analogs using commercially available membranes of Chinese hamster ovary cells (CHO) transfected with human recombinant ORs. [^3H]DAMGO, [^3H]deltorphin-2, and [^3H]U-69593 were used as the radioligands for MOR, DOR, and KOR, respectively. Tyr-[D-Lys-Phe-Phe-Asp]NH2 (1) was used as a reference opioid compound. […] None of them acquired significant DOR affinity.
(§2) To determine the affinity of peptide analogs to respective receptors, competition binding experiments were performed, as described in detail elsewhere.
(§3) Commercial membranes of CHO cells stably expressing either human ORs or NK1 receptor were used. [^3H]DAMGO, [^3H]deltorphin-2, and [^3H]U-69593 were employed as the competing radioligands for MOR, DOR, and KOR, respectively, while [^3H][Sar^9, Met(O2)^11]SP was utilized for the NK1 receptor. Membranes were incubated in a 0.5 mL volume of 50 mM Tris/HCl (pH = 7.4), 0.5% bovine serum albumin (BSA), with a number of peptidase inhibitors (bacitracin, bestatin, captopril) and various concentrations of radioligands for 2 h at 25 °C. Nonspecific binding was assessed in the presence of […] naloxone for ORs or SP for NK1 receptor.
(§4) The pharmacological terminology adopted in this paper is consistent with International Union of Basic and Clinical Pharmacology (IUPHAR) recommendations. Concentration–response curves were analyzed by nonlinear regression using Graph Pad Prism 6.0 (La Jolla, CA, USA). […]. […] Concentration–response curves were fitted with the four-parameter logistic nonlinear regression model (1) Effect=baseline+Emax−baseline/1+10^logEC50−X·n where X is the agonist concentration and n is the Hill coefficient. Ligand efficacy was expressed as intrinsic activity (α) calculated as a ratio of the peptide Emax to the Emax of the standard agonist (Supplementary Materials, Figure S7). […]. All statistical analyses were performed using Graph Pad Prism 6.0 (La Jolla, CA, USA). Differences between groups were analyzed with one-way ANOVA and a post hoc multiple comparison by the Student–Newman–Keuls test. A probability level of 0.05 or smaller was used to indicate statistical significance.
In general terms: Loss of bound radioactivity is the signal in a displacement assay; it reports binding, not function.

For test [2], the target named is T2, human opioid receptor DOR (Homo sapiens, UniProt P41143).
T2 construct: purchased PerkinElmer (Krakow, Poland); host or cells: CHO cell membranes
Description: Radioligand binding assay, displacement of [3H]deltorphin-2. Conditions: displacement of [3H]deltorphin-2 from membranes of CHO cells transfected with human DOR, 50 mM Tris/HCl pH 7.4, 0.5% BSA, peptidase inhibitors, 2 h at 25 °C, mean ± SEM, n ≥ 3. Here is the method: A radioligand binding assay was performed to determine the opioid receptor (OR) binding affinities of the novel analogs using commercially available membranes of Chinese hamster ovary cells (CHO) transfected with human recombinant ORs. […] Tyr-[D-Lys-Phe-Phe-Asp]NH2 (1) was used as a reference opioid compound.
as §2
Commercial membranes of CHO cells stably expressing either human ORs or NK1 receptor were used. […] Membranes were incubated in a 0.5 mL volume of 50 mM Tris/HCl (pH = 7.4), 0.5% bovine serum albumin (BSA), with a number of peptidase inhibitors (bacitracin, bestatin, captopril) and various concentrations of radioligands for 2 h at 25 °C.
(§5) The pharmacological terminology adopted in this paper is consistent with International Union of Basic and Clinical Pharmacology (IUPHAR) recommendations. Concentration–response curves were analyzed by nonlinear regression using Graph Pad Prism 6.0 (La Jolla, CA, USA). […] Concentration–response curves were fitted with the four-parameter logistic nonlinear regression model (1) Effect=baseline+Emax−baseline/1+10^logEC50−X·n where X is the agonist concentration and n is the Hill coefficient. Ligand efficacy was expressed as intrinsic activity (α) calculated as a ratio of the peptide Emax to the Emax of the standard agonist (Supplementary Materials, Figure S7). […] All statistical analyses were performed using Graph Pad Prism 6.0 (La Jolla, CA, USA). Differences between groups were analyzed with one-way ANOVA and a post hoc multiple comparison by the Student–Newman–Keuls test. A probability level of 0.05 or smaller was used to indicate statistical significance.

Test [3] deals with T3, human opioid receptor KOR (Homo sapiens, UniProt P41145).
T3 construct: purchased PerkinElmer (Krakow, Poland); host or cells: CHO cell membranes
Description: Radioligand binding assay, displacement of [3H]U-69593. Particulars: displacement of [3H]U-69593 from membranes of CHO cells transfected with human KOR, 50 mM Tris/HCl pH 7.4, 0.5% BSA, peptidase inhibitors, 2 h at 25 °C, mean ± SEM, n ≥ 3. Here is the method:
as §1, §2, §3, §4

For test [4], the target named is T4, human MOR (Homo sapiens, UniProt P35372).
T4 construct: expressed in transfected cells; host or cells: CHO cells (University of Ferrara), co-expressing Gαqi5
Description: Calcium mobilization functional assay, agonist mode. It counts as cell-based. Particulars: for MOR α ± SEM: efficacy (intrinsic activity), Emax relative to EM-2, mean ± SEM. A general note: Calcium assays in cells follow changes in intracellular calcium, usually with a dye or a luminescent sensor.

The target of test [5] is T5, DOR (Homo sapiens, UniProt P41143).
T5 construct: expressed in transfected cells; host or cells: CHO cells (University of Ferrara), co-expressing GαqG66Di5
Described as above. Type of test: cell-based. Particulars: CHO cells co-expressing DOR and GαqG66Di5, n = 5; for DOR pEC50 (CL95%): Fluo-4 AM calcium signal; for DOR α ± SEM: efficacy (intrinsic activity), Emax relative to DPDPE, mean ± SEM.

Test [6] concerns the target human NK1 (Homo sapiens, UniProt P25103). Description: Calcium mobilization assay, inhibition response experiments against SP. It counts as cell-based. Further details: expressed in transfected cells; host or cells: CHO cells (gift of Prof. T. Costa, ISS, Rome). The protocol:
Following aspiration of the loading solution and a washing step, serial dilutions of peptide stock solutions were added.
as §5

[7] abbreviates: CHO cells co-expressing human MOR and Gαqi5, n = 5, SEM.

T5 sequence (P41143 whole entry): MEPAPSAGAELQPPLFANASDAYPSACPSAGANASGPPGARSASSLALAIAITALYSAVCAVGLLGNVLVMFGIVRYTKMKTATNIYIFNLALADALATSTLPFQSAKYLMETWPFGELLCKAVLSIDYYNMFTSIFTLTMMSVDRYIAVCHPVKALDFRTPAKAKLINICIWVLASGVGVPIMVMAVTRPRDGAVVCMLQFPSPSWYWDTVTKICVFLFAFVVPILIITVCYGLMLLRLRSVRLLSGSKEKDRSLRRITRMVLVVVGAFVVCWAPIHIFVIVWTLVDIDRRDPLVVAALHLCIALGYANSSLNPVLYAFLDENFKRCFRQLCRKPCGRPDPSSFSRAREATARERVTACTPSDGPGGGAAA
T4 sequence (P35372 whole entry): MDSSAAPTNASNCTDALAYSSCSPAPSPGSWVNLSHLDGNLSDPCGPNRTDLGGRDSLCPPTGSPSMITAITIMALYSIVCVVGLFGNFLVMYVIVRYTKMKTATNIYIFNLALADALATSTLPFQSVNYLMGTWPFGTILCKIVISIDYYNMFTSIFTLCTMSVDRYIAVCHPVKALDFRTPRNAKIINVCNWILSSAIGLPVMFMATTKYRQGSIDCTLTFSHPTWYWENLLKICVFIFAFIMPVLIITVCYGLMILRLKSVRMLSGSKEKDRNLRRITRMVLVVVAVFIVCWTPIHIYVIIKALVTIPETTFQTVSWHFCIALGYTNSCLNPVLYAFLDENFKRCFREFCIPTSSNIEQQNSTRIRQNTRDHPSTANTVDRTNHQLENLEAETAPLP
T3 sequence (P41145 whole entry): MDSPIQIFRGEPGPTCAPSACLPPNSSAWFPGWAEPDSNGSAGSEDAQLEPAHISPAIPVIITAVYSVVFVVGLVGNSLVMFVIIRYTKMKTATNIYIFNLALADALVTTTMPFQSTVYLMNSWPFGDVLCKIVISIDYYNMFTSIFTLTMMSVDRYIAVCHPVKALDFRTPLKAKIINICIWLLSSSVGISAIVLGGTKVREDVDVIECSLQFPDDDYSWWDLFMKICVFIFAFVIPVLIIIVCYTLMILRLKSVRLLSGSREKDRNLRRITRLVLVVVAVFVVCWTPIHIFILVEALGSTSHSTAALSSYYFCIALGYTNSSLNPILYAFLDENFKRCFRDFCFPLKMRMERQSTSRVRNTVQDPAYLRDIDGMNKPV
T2 sequence (P41143 whole entry): as the sequence (P41143 whole entry) above
T1 sequence (P35372 whole entry): as the sequence (P35372 whole entry) above
Sequence of human NK1 (P25103 whole entry): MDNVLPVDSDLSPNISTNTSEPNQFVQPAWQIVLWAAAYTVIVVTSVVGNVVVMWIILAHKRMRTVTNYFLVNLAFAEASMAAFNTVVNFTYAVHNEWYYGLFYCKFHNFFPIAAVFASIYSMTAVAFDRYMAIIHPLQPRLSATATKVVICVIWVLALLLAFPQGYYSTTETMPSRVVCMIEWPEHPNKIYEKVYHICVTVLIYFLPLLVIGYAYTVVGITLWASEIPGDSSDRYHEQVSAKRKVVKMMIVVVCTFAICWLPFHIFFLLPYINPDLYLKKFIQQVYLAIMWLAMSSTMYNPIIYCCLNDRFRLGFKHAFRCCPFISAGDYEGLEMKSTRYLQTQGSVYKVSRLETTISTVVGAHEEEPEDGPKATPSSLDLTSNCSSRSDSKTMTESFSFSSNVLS

A word on the Ki: it is the equilibrium dissociation constant of an inhibitor or competing ligand from its target. Consider `CSCC[C@H](NC(=O)[C@H](CC(C)C)NC(=O)CNC(=O)[C@H](Cc1ccccc1)NC(=O)[C@H](Cc1ccccc1)NC(=O)[C@H](CCC(N)=O)NC(=O)[C@@H]1CC(=O)NCCCC[C@@H](NC(=O)[C@@H](N)Cc2ccc(O)cc2)C(=O)N[C@@H](Cc2ccccc2)C(=O)N[C@@H](Cc2ccccc2)C(=O)N1)C(N)=O` [compound 4, Tyr-[D-Lys-Phe-Phe-Asp]-Gln-Phe-Phe-Gly-Leu-Met-NH2] (H-Y[dK]FFDQFFGLM-NH2; lactam 2-5), for which the results for the inhibitory constant (Ki) in test [1], in test [2] and in test [3] were 7.98 ± 0.97 nM, 225 ± 14 nM and 10.8 ± 0.85 nM, respectively. Moreover, the “MOR α ± SEM” value in test [4] (setting [7]) was 0.90 ± 0.04. For the same molecule, the “DOR pEC50 (CL95%)” value in test [5] is listed as “Crc incomplete”. The “DOR α ± SEM” value in test [5] is listed as “Crc incomplete”.
Turning to `CCCC[C@H](NC(=O)[C@H](CC(C)C)NC(=O)[C@@H](Cc1c[nH]c2ccccc12)NC(=O)[C@H](Cc1ccccc1)NC(=O)[C@@H](Cc1c[nH]c2ccccc12)NC(=O)[C@H](CC(N)=O)NC(=O)[C@@H]1CC(=O)NCCCC[C@@H](NC(=O)[C@@H](N)Cc2ccc(O)cc2)C(=O)N[C@@H](Cc2ccccc2)C(=O)N[C@@H](Cc2ccccc2)C(=O)N1)C(N)=O` [compound 2, Tyr-[D-Lys-Phe-Phe-Asp]-Asn-D-Trp-Phe-D-Trp-Leu-Nle-NH2] (H-Y[dK]FFDN[dW]F[dW]L[Nle]-NH2; lactam 2-5), the values for the Ki in test [1], in test [2] and in test [3] were 5.99 ± 0.7 nM, 202 ± 2.5 nM and 7.46 ± 0.6 nM, respectively. In addition, in test [4] (CHO cells co-expressing human MOR and Gαqi5, Fluo-4 AM calcium signal, n = 5, read-out: MOR pEC50 (CL95%) (converted)), the EC50 is 31.6 nM. Besides, the “lower potency at MOR as compared with 1” value in test [4] (calcium mobilization, from pEC50 values) is 30 fold. The “MOR α ± SEM” value in test [4] (CHO cells co-expressing human MOR and Gαqi5, n = 5) turned out to be 0.66; in test [4] (setting [7]), 0.66 ± 0.04. The “DOR pEC50 (CL95%)” value in test [5] is reported as “Crc incomplete”. In addition, the “DOR α ± SEM” value in test [5] is listed as “Crc incomplete”. Also, the Kb in test [6] is 46.8 nM.
